# In patent US9522881B2, “Hydroxyindole carboxylic acid based inhibitors for oncogenic Src homology-2 domain containing protein tyrosine phosphatase-2 (SHP2)” (Indiana University Research and Technology Corporation, priority 2013, dated 2016):
# Legend:
# [1] = system: 32D myeloid cells bearing KITD814V; assay: Proliferation (thymidine incorporation) of 32D myeloid cells bearing KITD814V; assay type: cell-based
# Procedure: (§1) FIG. 8A is a graph depicting 32D myeloid cells bearing wild-type (WT) KIT or KITD814V that were starved of serum and growth factors for 6 hours and subjected to proliferation assay in the presence or absence of the indicated concentration of II-B08 or 11a-1 as analyzed in Example 6. Assay was performed in the presence of IL-3 (10 ng/mL) for cells bearing WT KIT and in the absence of growth factors for cells bearing oncogenic KITD814V. Bars denote the mean thymidine incorporation (CPM±SEM) consolidated from four independent experiments performed in triplicate. *p<0.05.
# (§2) To further determine the efficacy of compound 11a-1, the growth of oncogenic KITD814V bearing 32D myeloid cells in the presence of II-B08 and 11a-1 were compared. Specifically, the wild-type (WT) KIT and KITD814V were inserted into the bicistronic retroviral vector, MIEG3, upstream of the internal ribosome entry site (IRES) and the enhanced green fluorescent protein (EGFP) gene as previously described in Mali et al., 2012. Retroviral supernatants for transduction of 32D myeloid cells and primary hematopoietic stem and progenitor cells were generated using Phoenix ecotropic packaging cell line transfected with retroviral vector plasmids using a calcium phosphate transfection kit (Invitrogen, Carlsbad, Calif.). Supernatants were collected 48 hours after transfection and filtered through 0.45 μm membranes. 32D myeloid cells were infected twice at 24-hour intervals with 2 mL high/titer virus supernatant in the presence of 10 ng/mL IL-3 and 8 μg/mL polybrene. Forty-eight hours after infection, 32D cells expressing WT KIT or KITD814V receptors were sorted to homogeneity based on EGFP expression and utilized to perform all of the experiments.
# [2] = system: growth factor stimulated ERK1/2 activation; settings: cited from earlier work
# [3] = system: 32D myeloid cells bearing wild-type (WT) KIT; assay: Proliferation (thymidine incorporation) of 32D myeloid cells bearing WT KIT; assay type: cell-based; settings: tested concentrations, with IL-3
# Procedure: as §1
# as §2, with “32D myeloid cells were infected twice at 24-hour intervals with 2 mL high/titer virus supernatant in the presence of 10 ng/mL IL-3 and 8 μg/mL polybrene. Forty-eight hours after infection, 32D cells expressing WT KIT or KITD814V receptors were sorted to homogeneity based on EGFP expression and utilized to perform all of the experiments.” left out
# leukemic mice = settings: together with PI3Kinase inhibitor LY294002, compared to either inhibitor alone; cited from earlier work
# hematopoietic progenitor = settings: cited from earlier work
# [4] = system: 32D myeloid cells bearing KITD814V; settings: previously shown (Mali et al., 2012); cited from earlier work
smiles,measurement,setting,value
Cn1c(-c2ccccc2)c(-c2cn(CCC(=O)Nc3ccc(-c4ccccc4)cc3)nn2)c2cc(C(=O)O)c(O)cc21 [IIB08],ligand independent growth of KITD814V bearing 32D cells,[1]; 1 μM,not at 1 μM concentration
same,ligand independent growth of KITD814V bearing 32D cells,[1]; 5 μM,significant suppression
same,growth factor stimulated ERK1/2 activation,[2],blocked
same,growth of WT KIT bearing 32D cells,[3],no significant suppression
same,survival of leukemic mice,leukemic mice,significantly prolonged the survival
same,hematopoietic progenitor proliferation,hematopoietic progenitor,blocked
same,oncogenic KITD814V induced ligand independent growth,[4],suppressed
